Laboratory results as given in ChEMBL document CHEMBL4371002 (J Med Chem, 2018).
Converted amounts (≈) assume the structure as drawn. Peptide text beside a SMILES is read from it. * marks the point of attachment. X1 = CC(C)[C@H](/C=C(\Cl)[C@H](C)N)C(=O)*; X4 = C[C@H](/C=C(\Cl)[C@H](C)N)C(=O)*; X2 = C[C@H](/C=C(\F)[C@H](C)N)C(=O)*

Tested on: not listed separately
Assay: physchem
Settings: not given
`NCc1cc(F)c(O)c(F)c1` showed a pKa of 7.12.
For `NCc1ccc(F)c(O)c1F`, the pKa was 9.81.

Target: Bacterial 70S ribosome
Assay: not given
Assay type: subcellular, Bacteria
Settings: not given
For `CC1=C\[C@@H](O)C[C@@H](O)Cc2nc(co2)C(=O)N2CCC[C@@H]2C(=O)O[C@H](C(C)C)[C@H](C)/C=C/C(=O)NC\C=C\1`, the IC50 was 50 nM.
Work on `CC1=C\[C@@H](O)C[C@@H](F)Cc2nc(co2)C(=O)N2CCC[C@@H]2C(=O)O[C@H](C(C)C)[C@H](C)/C=C/C(=O)NC\C=C\1` yielded an IC50 of 60 nM.
Molecule `CC1=C\[C@@H](O)CC(=O)Cc2nc(co2)C(=O)N2CCC[C@@H]2C(=O)O[C@H](C(C)C)[C@H](C)/C=C/C(=O)NC\C=C\1` [VOLPRISTIN] has an IC50 of 100 nM.
For `CC1=C\[C@@H](O)C[C@H](F)Cc2nc(co2)C(=O)N2CCC[C@@H]2C(=O)O[C@H](C(C)C)[C@H](C)/C=C/C(=O)NC\C=C\1`, the IC50 was 500 nM.
`CC1=C\[C@@H](O)C[C@H](O)Cc2nc(co2)C(=O)N2CCC[C@@H]2C(=O)O[C@H](C(C)C)[C@H](C)/C=C/C(=O)NC\C=C\1` showed an IC50 of 6000 nM.

Target: T1, Parathyroid hormone/parathyroid hormone-related peptide receptor (Homo sapiens, UniProt Q03431)
T1 sequence (Q03431 whole entry): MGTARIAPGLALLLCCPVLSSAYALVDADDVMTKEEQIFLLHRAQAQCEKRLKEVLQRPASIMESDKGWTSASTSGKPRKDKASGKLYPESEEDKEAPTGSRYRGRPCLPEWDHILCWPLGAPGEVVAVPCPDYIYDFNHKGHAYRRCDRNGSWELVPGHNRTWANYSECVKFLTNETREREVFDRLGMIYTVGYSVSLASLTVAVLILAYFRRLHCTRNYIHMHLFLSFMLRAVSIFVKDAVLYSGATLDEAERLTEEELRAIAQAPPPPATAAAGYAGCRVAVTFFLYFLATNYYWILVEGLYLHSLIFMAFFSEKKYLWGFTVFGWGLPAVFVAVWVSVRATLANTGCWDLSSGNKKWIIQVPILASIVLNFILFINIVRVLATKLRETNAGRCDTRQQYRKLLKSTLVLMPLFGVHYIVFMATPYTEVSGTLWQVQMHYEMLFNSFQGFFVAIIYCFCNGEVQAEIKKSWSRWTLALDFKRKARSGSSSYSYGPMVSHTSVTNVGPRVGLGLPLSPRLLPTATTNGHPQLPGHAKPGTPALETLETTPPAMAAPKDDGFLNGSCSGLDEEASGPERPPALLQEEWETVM
Assay: biochemical
Settings: not given
For `CC[C@H](C)[C@H](NC(=O)[C@H](CCC(=O)O)NC(=O)[C@H](CO)NC(=O)[C@H](C)/C=C(\Cl)[C@H](C)N)C(=O)N[C@@H](CCC(N)=O)C(=O)N[C@@H](CC(C)C)C(=O)N[C@@H](CCSC)C(=O)N[C@@H](Cc1c[nH]cn1)C(=O)N[C@@H](CC(N)=O)C(=O)N[C@@H](CC(C)C)C(=O)NCC(=O)N[C@@H](CCCCN)C(=O)N[C@@H](Cc1c[nH]cn1)C(=O)N[C@@H](CC(C)C)C(=O)N[C@@H](CC(N)=O)C(=O)N[C@@H](CO)C(=O)N[C@@H](CCSC)C(=O)N[C@@H](CCC(=O)O)C(=O)N[C@@H](CCCN=C(N)N)C(=O)N[C@H](C(=O)N[C@@H](CCC(=O)O)C(=O)N[C@@H](Cc1c[nH]c2ccccc12)C(=O)N[C@@H](CC(C)C)C(=O)N[C@@H](CCCN=C(N)N)C(=O)N[C@@H](CCCCN)C(=O)N[C@@H](CCCCN)C(=O)N[C@@H](CC(C)C)C(=O)N[C@@H](CCC(N)=O)C(=O)N[C@@H](CC(=O)O)C(=O)N[C@H](C(=O)N[C@@H](Cc1c[nH]cn1)C(=O)N[C@@H](CC(N)=O)C(=O)N[C@@H](Cc1ccccc1)C(=O)N[C@H](C(=O)N[C@@H](C)C(N)=O)C(C)C)C(C)C)C(C)C` (X4-SEIQLMHNLGKHLNSMERVEWLRKKLQDVHNFVA-NH2), the Kd was 1.26 nM.
`CC[C@H](C)[C@H](NC(=O)[C@H](CCC(=O)O)NC(=O)[C@H](CO)NC(=O)[C@H](C)/C=C(\F)[C@H](C)N)C(=O)N[C@@H](CCC(N)=O)C(=O)N[C@@H](CC(C)C)C(=O)N[C@@H](CCSC)C(=O)N[C@@H](Cc1c[nH]cn1)C(=O)N[C@@H](CC(N)=O)C(=O)N[C@@H](CC(C)C)C(=O)NCC(=O)N[C@@H](CCCCN)C(=O)N[C@@H](Cc1c[nH]cn1)C(=O)N[C@@H](CC(C)C)C(=O)N[C@@H](CC(N)=O)C(=O)N[C@@H](CO)C(=O)N[C@@H](CCSC)C(=O)N[C@@H](CCC(=O)O)C(=O)N[C@@H](CCCN=C(N)N)C(=O)N[C@H](C(=O)N[C@@H](CCC(=O)O)C(=O)N[C@@H](Cc1c[nH]c2ccccc12)C(=O)N[C@@H](CC(C)C)C(=O)N[C@@H](CCCN=C(N)N)C(=O)N[C@@H](CCCCN)C(=O)N[C@@H](CCCCN)C(=O)N[C@@H](CC(C)C)C(=O)N[C@@H](CCC(N)=O)C(=O)N[C@@H](CC(=O)O)C(=O)N[C@H](C(=O)N[C@@H](Cc1c[nH]cn1)C(=O)N[C@@H](CC(N)=O)C(=O)N[C@@H](Cc1ccccc1)C(=O)N[C@H](C(=O)N[C@@H](C)C(N)=O)C(C)C)C(C)C)C(C)C` (X2-SEIQLMHNLGKHLNSMERVEWLRKKLQDVHNFVA-NH2) gave a Kd of 6.31 nM.
Work on `CC[C@H](C)[C@H](NC(=O)[C@H](CCC(=O)O)NC(=O)[C@H](CO)NC(=O)[C@@H](/C=C(\Cl)[C@H](C)N)C(C)C)C(=O)N[C@@H](CCC(N)=O)C(=O)N[C@@H](CC(C)C)C(=O)N[C@@H](CCSC)C(=O)N[C@@H](Cc1c[nH]cn1)C(=O)N[C@@H](CC(N)=O)C(=O)N[C@@H](CC(C)C)C(=O)NCC(=O)N[C@@H](CCCCN)C(=O)N[C@@H](Cc1c[nH]cn1)C(=O)N[C@@H](CC(C)C)C(=O)N[C@@H](CC(N)=O)C(=O)N[C@@H](CO)C(=O)N[C@@H](CCSC)C(=O)N[C@@H](CCC(=O)O)C(=O)N[C@@H](CCCN=C(N)N)C(=O)N[C@H](C(=O)N[C@@H](CCC(=O)O)C(=O)N[C@@H](Cc1c[nH]c2ccccc12)C(=O)N[C@@H](CC(C)C)C(=O)N[C@@H](CCCN=C(N)N)C(=O)N[C@@H](CCCCN)C(=O)N[C@@H](CCCCN)C(=O)N[C@@H](CC(C)C)C(=O)N[C@@H](CCC(N)=O)C(=O)N[C@@H](CC(=O)O)C(=O)N[C@H](C(=O)N[C@@H](Cc1c[nH]cn1)C(=O)N[C@@H](CC(N)=O)C(=O)N[C@@H](Cc1ccccc1)C(=O)N[C@H](C(=O)N[C@@H](C)C(N)=O)C(C)C)C(C)C)C(C)C` (X1-SEIQLMHNLGKHLNSMERVEWLRKKLQDVHNFVA-NH2) yielded a Kd of 1.26 nM.

Tested on: Staphylococcus hominis
Assay: microbe, parasite or virus in culture
Assay type: functional
Settings: IP8203
Molecule `CC1=C\[C@@H](O)C[C@@H](O)Cc2nc(co2)C(=O)N2CCC[C@@H]2C(=O)O[C@H](C(C)C)[C@H](C)/C=C/C(=O)NC\C=C\1` has an MIC of 1 µg/mL (≈ 1.89 µM).
Molecule `CC1=C\[C@@H](O)C[C@@H](F)Cc2nc(co2)C(=O)N2CCC[C@@H]2C(=O)O[C@H](C(C)C)[C@H](C)/C=C/C(=O)NC\C=C\1` has an MIC of 0.25 µg/mL (≈ 0.47 µM).
Molecule `CC1=C\[C@@H](O)CC(=O)Cc2nc(co2)C(=O)N2CCC[C@@H]2C(=O)O[C@H](C(C)C)[C@H](C)/C=C/C(=O)NC\C=C\1` [VOLPRISTIN] has an MIC of 4 µg/mL (≈ 7.58 µM).
Molecule `CC1=C\[C@@H](O)C[C@H](F)Cc2nc(co2)C(=O)N2CCC[C@@H]2C(=O)O[C@H](C(C)C)[C@H](C)/C=C/C(=O)NC\C=C\1` has an MIC of 8 µg/mL (≈ 15 µM).
`CC1=C\[C@@H](O)C[C@H](O)Cc2nc(co2)C(=O)N2CCC[C@@H]2C(=O)O[C@H](C(C)C)[C@H](C)/C=C/C(=O)NC\C=C\1` gave an MIC of 32 µg/mL (≈ 60.4 µM).

Target: T1, Parathyroid hormone/parathyroid hormone-related peptide receptor
Assay: not given
Settings: not given
In the case of `CC[C@H](C)[C@H](NC(=O)[C@H](CCC(=O)O)NC(=O)[C@H](CO)NC(=O)[C@H](C)/C=C(\Cl)[C@H](C)N)C(=O)N[C@@H](CCC(N)=O)C(=O)N[C@@H](CC(C)C)C(=O)N[C@@H](CCSC)C(=O)N[C@@H](Cc1c[nH]cn1)C(=O)N[C@@H](CC(N)=O)C(=O)N[C@@H](CC(C)C)C(=O)NCC(=O)N[C@@H](CCCCN)C(=O)N[C@@H](Cc1c[nH]cn1)C(=O)N[C@@H](CC(C)C)C(=O)N[C@@H](CC(N)=O)C(=O)N[C@@H](CO)C(=O)N[C@@H](CCSC)C(=O)N[C@@H](CCC(=O)O)C(=O)N[C@@H](CCCN=C(N)N)C(=O)N[C@H](C(=O)N[C@@H](CCC(=O)O)C(=O)N[C@@H](Cc1c[nH]c2ccccc12)C(=O)N[C@@H](CC(C)C)C(=O)N[C@@H](CCCN=C(N)N)C(=O)N[C@@H](CCCCN)C(=O)N[C@@H](CCCCN)C(=O)N[C@@H](CC(C)C)C(=O)N[C@@H](CCC(N)=O)C(=O)N[C@@H](CC(=O)O)C(=O)N[C@H](C(=O)N[C@@H](Cc1c[nH]cn1)C(=O)N[C@@H](CC(N)=O)C(=O)N[C@@H](Cc1ccccc1)C(=O)N[C@H](C(=O)N[C@@H](C)C(N)=O)C(C)C)C(C)C)C(C)C` (X4-SEIQLMHNLGKHLNSMERVEWLRKKLQDVHNFVA-NH2), the EC50 is reported as 5.5 nM.
In the case of `CC[C@H](C)[C@H](NC(=O)[C@H](CCC(=O)O)NC(=O)[C@H](CO)NC(=O)[C@H](C)/C=C(\F)[C@H](C)N)C(=O)N[C@@H](CCC(N)=O)C(=O)N[C@@H](CC(C)C)C(=O)N[C@@H](CCSC)C(=O)N[C@@H](Cc1c[nH]cn1)C(=O)N[C@@H](CC(N)=O)C(=O)N[C@@H](CC(C)C)C(=O)NCC(=O)N[C@@H](CCCCN)C(=O)N[C@@H](Cc1c[nH]cn1)C(=O)N[C@@H](CC(C)C)C(=O)N[C@@H](CC(N)=O)C(=O)N[C@@H](CO)C(=O)N[C@@H](CCSC)C(=O)N[C@@H](CCC(=O)O)C(=O)N[C@@H](CCCN=C(N)N)C(=O)N[C@H](C(=O)N[C@@H](CCC(=O)O)C(=O)N[C@@H](Cc1c[nH]c2ccccc12)C(=O)N[C@@H](CC(C)C)C(=O)N[C@@H](CCCN=C(N)N)C(=O)N[C@@H](CCCCN)C(=O)N[C@@H](CCCCN)C(=O)N[C@@H](CC(C)C)C(=O)N[C@@H](CCC(N)=O)C(=O)N[C@@H](CC(=O)O)C(=O)N[C@H](C(=O)N[C@@H](Cc1c[nH]cn1)C(=O)N[C@@H](CC(N)=O)C(=O)N[C@@H](Cc1ccccc1)C(=O)N[C@H](C(=O)N[C@@H](C)C(N)=O)C(C)C)C(C)C)C(C)C` (X2-SEIQLMHNLGKHLNSMERVEWLRKKLQDVHNFVA-NH2), the EC50 is reported as 9.1 nM.
Work on `CC[C@H](C)[C@H](NC(=O)[C@H](CCC(=O)O)NC(=O)[C@H](CO)NC(=O)[C@@H](/C=C(\Cl)[C@H](C)N)C(C)C)C(=O)N[C@@H](CCC(N)=O)C(=O)N[C@@H](CC(C)C)C(=O)N[C@@H](CCSC)C(=O)N[C@@H](Cc1c[nH]cn1)C(=O)N[C@@H](CC(N)=O)C(=O)N[C@@H](CC(C)C)C(=O)NCC(=O)N[C@@H](CCCCN)C(=O)N[C@@H](Cc1c[nH]cn1)C(=O)N[C@@H](CC(C)C)C(=O)N[C@@H](CC(N)=O)C(=O)N[C@@H](CO)C(=O)N[C@@H](CCSC)C(=O)N[C@@H](CCC(=O)O)C(=O)N[C@@H](CCCN=C(N)N)C(=O)N[C@H](C(=O)N[C@@H](CCC(=O)O)C(=O)N[C@@H](Cc1c[nH]c2ccccc12)C(=O)N[C@@H](CC(C)C)C(=O)N[C@@H](CCCN=C(N)N)C(=O)N[C@@H](CCCCN)C(=O)N[C@@H](CCCCN)C(=O)N[C@@H](CC(C)C)C(=O)N[C@@H](CCC(N)=O)C(=O)N[C@@H](CC(=O)O)C(=O)N[C@H](C(=O)N[C@@H](Cc1c[nH]cn1)C(=O)N[C@@H](CC(N)=O)C(=O)N[C@@H](Cc1ccccc1)C(=O)N[C@H](C(=O)N[C@@H](C)C(N)=O)C(C)C)C(C)C)C(C)C` (X1-SEIQLMHNLGKHLNSMERVEWLRKKLQDVHNFVA-NH2) yielded an EC50 of 7.9 nM.
